{"source": "paper PMC6428840", "about": "“The Arabidopsis H3K27me3 demethylase JUMONJI 13 is a temperature and photoperiod dependent flowering repressor” (Nature Communications, 2019)", "molecular_target": "T1, JMJ13CD (JMJ13 catalytic domain) (Arabidopsis thaliana, UniProt F4KIX0)", "T1 construct": "catalytic domain, residues 90-578 (jumonji, helical and C4HCHC zinc finger domains); His6-SUMO tag removed by ulp1; E. coli BL21(DE3) RIL; Ni2+ in place of Fe2+", "T1 sequence (F4KIX0 90-578)": "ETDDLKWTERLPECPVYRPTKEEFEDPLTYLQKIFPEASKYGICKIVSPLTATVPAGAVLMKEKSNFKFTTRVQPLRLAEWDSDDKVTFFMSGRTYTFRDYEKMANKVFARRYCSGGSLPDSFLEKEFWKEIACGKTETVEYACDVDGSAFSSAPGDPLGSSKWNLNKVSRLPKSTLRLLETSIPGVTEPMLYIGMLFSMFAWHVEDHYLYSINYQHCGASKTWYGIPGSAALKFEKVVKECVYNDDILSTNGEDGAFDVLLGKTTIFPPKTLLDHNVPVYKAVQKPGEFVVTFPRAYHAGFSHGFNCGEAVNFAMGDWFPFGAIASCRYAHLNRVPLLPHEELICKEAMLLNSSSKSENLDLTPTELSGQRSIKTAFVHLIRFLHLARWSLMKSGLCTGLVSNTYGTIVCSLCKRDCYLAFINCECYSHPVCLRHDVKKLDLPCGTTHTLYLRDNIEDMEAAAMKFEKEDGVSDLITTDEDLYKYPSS", "assay": "X-ray crystal structure, […] Å", "type": "binding", "settings": "JMJ13-NOG crystals soaked with 10 mM H3(24-35)K27me3 peptide; Ni2+ in place of Fe2+; pH 6.5; active site, α-KG analog", "data": [{"smiles": "O=C(O)CNC(=O)C(=O)O", "note": "[NOG, N-oxalylglycine]", "values": [{"measurement": "X-ray crystal structure, 2.6 Å", "value": "in complex with the α-KG analog N-oxalylglycine (NOG) and an H3K27me3 peptide"}]}]}
